Data published in article PMC8878317, “Chemogenomics identifies acetyl-coenzyme A synthetase as a target for malaria treatment and prevention” (Cell Chemical Biology, 2022).

Legend:
P. falciparum 3D7-A10 = assay: Blood-stage dose-response assay (SYBR Green I, 72 hr), 3D7 / 3D7-A10 parent; assay type: cell-based; settings: Plasmodium falciparum, mean ± SD, n bioreplicates, read-out: 3D7-A10 parent EC50 ± SD
Procedure: (§1) The 3D7-A10 clone has been used in previous in vitro drug selection and sequencing efforts ([Cowell et al., 2018]). Dd2 parasites were obtained from T. Wellems (NIAID, NIH). Dd2-B2 is a genetically homogeneous line that was cloned from Dd2 by limiting dilution in the Fidock lab. Parasite strains were cultured in 3-5% human O+ hematocrit in RPMI 1640 (Life Technologies) supplemented with 28 mM NaHCO3, 25 mM HEPES, and hypoxanthine ([…]). Depending on the parasite line, the media either contained gentamycin (25 μg/mL), or no antibiotic and was additionally supplemented with 0.5% AlbuMAX II (Life Technologies) and/or O+ human serum (heat inactivated and pooled). Blood and serum products were obtained from Interstate Blood Bank. Cultures were maintained at 37°C in 1.1% O2, 4% CO2, and 95% N2. Parasite populations were synchronized by 5% sorbitol treatment ([Lambros and Vanderberg, 1979]).
(§2) For in vitro–selected lines, drug susceptibility was measured by SYBR Green I–based assay ([Johnson et al., 2007]; [Smilkstein et al., 2004]). Ring-stage parasites were cultured for 72 hr at 1% hematocrit and 1% starting parasitemia in 384-well black clear-bottom plates containing test compounds plated in triplicate in 12-point serial dilutions. Lysis buffer (0.16% w/v saponin, 1.6% Triton X-100, 5 mM EDTA, and 20 mM Tris-HCl, pH 7.4) with SYBR Green I fluorescent dye (Invitrogen) was added, and fluorescence readings were taken (excitation at 494 nm, emission at 530 nm). Alternatively, Dd2-B2 ring-stage cultures at 0.3% parasitemia and 1% hematocrit were exposed for 72 hr to a range of ten drug concentrations that were 2-fold serially diluted in duplicates along with drug-free controls. Parasite survival was assessed by flow cytometry on an Accuri C6 (BD Biosciences) using SYBR Green and MitoTracker Deep Red FM (Life Technologies) as nucleic acid stain and vital dyes respectively. EC50 values were calculated using a nonlinear regression curve fit in Prism Software version 8 (GraphPad).

[1] = tested on: P. falciparum Dd2:T648M (CRISPR edited PfAcAS); assay: Blood-stage dose-response assay, CRISPR-edited Dd2:T648M line; assay type: cell-based; settings: Plasmodium falciparum, mean ± SD, n bioreplicates
Procedure: as §2
(§3) Mutant PfAcAS-A597V and PfAcAS-T648M parasites were generated using CRISPR/Cas9. The guide RNAs for PfAcAS-A597V (5′-[…]-3′; 5′-[…]-3′) and for PfAcAS-T648M (5′-[…]-3′) were designed using Benchling (https://benchling.com/) to targeting sites in PfAcAS that were 6-14 bp upstream of the A597 codon and 6 bp downstream of the T648 codon respectively. Complementary oligos encoding the gRNA sequences (5′- tatt[…]-3’ / 5’-aaac[…]-3’; 5’-tatt[…]-3’ / 5’-aaac[…]-3’ and 5’- tattg[…]-3’ / 5’-aaac[…]c-3’ ) were phosphorylated using T4 polynucleotide kinase and annealed (95°C for 5 min, then step down of 5°C/min to 25°C) prior to ligation into the BbsI-digested pDC2-coCas9-U6.2-hDHFR plasmid ([Lim et al., 2016]). The donor template for PfAcAS-A597V was synthesized (ThermoFisher) as a 700 bp Genestring fragment spanning position 1468 to 2168 of the PfAcAS gene, and the donor for PfAcAS-T648M synthesized as a 829 bp fragment spanning position 1468 to 2297 and inserted into the AatII/EcoRI sites of the pDC2-coCas9-gRNA-hDHFR plasmid by Gibson assembly. Ring-stage parasites (Dd2) at 5% parasitemia were transfected by electroporation (BioRad Gene Pulser II at 0.310 kV and 950 μF) with 50 μg of each plasmid (plasmid 1: pDC2-coCas9-AcAS-A597V-gRNA1-hDHFR, plasmid 2: pDC2-coCas9-gRNA2-hDHFR, or plasmid 3: pDC2-coCas9-AcAS-T648M-gRNA1-hDHFR), and parasites selected for 10 days with 2.5 nM WR99210 (Jacobus Pharmaceuticals), followed by removal of drug pressure. After confirmation of editing in the bulk culture, clones were isolated by serial limiting dilution and confirmed by Sanger sequencing after PCR amplification from genomic DNA using forward primer 5′-[…]-3′ and reverse primer 5′-[…]-3′ (for A597V) and 5′-[…]-3′ (for T648M).

P. falciparum Dd2-B2 = assay: Blood-stage dose-response assay (72 hr), Dd2 / Dd2-B2 parent; assay type: cell-based; settings: Plasmodium falciparum, DD2, read-out: Dd2-B2 parent EC50 ± SD (nM)
Procedure: as §1, §2

[2] = tested on: P. falciparum Dd2:A597V (CRISPR edited PfAcAS); assay: Blood-stage dose-response assay, CRISPR-edited Dd2:A597V line; assay type: cell-based; settings: Plasmodium falciparum, mean ± SD, n bioreplicates
Procedure: as §2, §3

PfAcAS A597V = biological target: T1, PfAcAS A597V (Plasmodium falciparum, UniProt C6KTB4, A597V); assay: EnzChek assay, recombinant PfAcAS A597V; assay type: biochemical, P. falciparum; settings: substrate varied, other two saturating
T1 sequence (C6KTB4 1-997 A597V): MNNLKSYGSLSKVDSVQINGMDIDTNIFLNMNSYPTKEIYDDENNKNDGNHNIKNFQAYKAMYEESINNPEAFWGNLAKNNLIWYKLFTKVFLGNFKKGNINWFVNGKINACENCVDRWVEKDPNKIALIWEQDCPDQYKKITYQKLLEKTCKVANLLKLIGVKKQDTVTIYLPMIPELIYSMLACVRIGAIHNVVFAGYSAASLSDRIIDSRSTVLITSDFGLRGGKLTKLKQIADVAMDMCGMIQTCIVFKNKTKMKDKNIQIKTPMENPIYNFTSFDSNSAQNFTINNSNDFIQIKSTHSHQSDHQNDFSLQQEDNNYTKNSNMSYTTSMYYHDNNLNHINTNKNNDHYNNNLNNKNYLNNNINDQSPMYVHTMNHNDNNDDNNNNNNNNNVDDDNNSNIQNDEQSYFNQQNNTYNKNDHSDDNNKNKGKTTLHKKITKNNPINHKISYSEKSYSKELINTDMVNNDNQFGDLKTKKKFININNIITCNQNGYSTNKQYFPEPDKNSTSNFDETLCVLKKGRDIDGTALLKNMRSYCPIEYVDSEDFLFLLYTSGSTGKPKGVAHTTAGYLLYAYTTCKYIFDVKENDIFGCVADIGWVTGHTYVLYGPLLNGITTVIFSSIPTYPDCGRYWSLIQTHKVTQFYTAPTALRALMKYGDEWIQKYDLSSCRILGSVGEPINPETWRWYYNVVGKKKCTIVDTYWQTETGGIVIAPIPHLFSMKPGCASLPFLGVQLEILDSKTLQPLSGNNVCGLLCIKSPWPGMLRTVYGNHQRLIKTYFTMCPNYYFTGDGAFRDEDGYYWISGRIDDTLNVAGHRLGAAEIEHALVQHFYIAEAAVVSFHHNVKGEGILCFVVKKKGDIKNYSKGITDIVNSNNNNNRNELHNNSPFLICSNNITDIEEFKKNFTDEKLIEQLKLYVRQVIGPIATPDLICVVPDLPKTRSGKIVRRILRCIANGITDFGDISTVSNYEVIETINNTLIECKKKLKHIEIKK
Procedure: (§4) Steady-state kinetic measurements were conducted at room temperature using a PheraStar plate reader (BMG). The first step of the reaction of PfAcAS, which produces inorganic pyrophosphate (PPi) that is converted to two molecules of inorganic phosphate using a pyrophosphatase enzyme, was continuously monitored using the EnzChek Phosphate Assay Kit, which gives an absorbance readout at 360 nm (Figure 4A) ([Webb, 1992]). […] By adding CoA, the reaction rapidly proceeds to the second step resulting in further release of pyrophosphate, making the EnzChek assay a suitable option to continuously monitor the activity of PfAcAS. Typical kinetic assays were carried out in clear, flat-bottom, polystyrene, 384-well plates (Greiner) in an 80 μL reaction volume containing 100 mM HEPES (pH7.4), 100 mM NaCl, 250 mM KCl, 50 mM MgCl2, 1 mM DTT, 0.004% Tween 20, 0.5 U/mL pyrophosphatase, 0.1 mM MESG, 0.5 U/mL PNP, 2 mM ATP, 2 mM acetate, 0.5 mM CoA and 5 nM recombinant PfAcAS WT or 10 nM recombinant PfAcAS A597V or T648M. Assays were performed by adding 40 μL of a 2-times concentrated substrate mixture including MESG to all wells, and the reactions started by adding 40 μL of a 2-times concentrated reaction mixture containing all other components. The reactions were carried out for 2 to 4 hr with absorbance readings at 360 nm every two to four minutes. Reaction rates were extracted from the linear phase of activity, usually using 10 to 20 points between times of 30 and 100 min of the reactions. Using a phosphate standard curve obtained under the same buffer conditions used for the PfAcAS reactions (Figure S5A), the rates were then converted to velocity per second, conversion of one nanomolar of phosphate, per nanomolar of enzyme, per second. The substrates Km values were determined by varying the concentration of one of the substrates at saturating concentration of the other two substrates. Steady-state data were fitted using the nonlinear, least-squares, curve-fitting programs of Sigma-Plot for Windows, version 14.0. Individual saturation curves were fit to Equation 1(Equation 1) v=VS/K+S where V is the maximal velocity, S is the substrate concentration and K is the Michaelis constant for the substrate (Km). Individual saturation curves displaying substrate inhibition were fit to Equation 2(Equation 2) v=VS/K+S×(1+S/Ks) where Ks is the substrate inhibition constant.
(§5) To determine the steady-state inhibition parameters and patterns associated with both inhibitors, PfAcAS activity was studied in the presence of variable concentrations of one substrate, ATP, acetate or CoA, fixed saturating concentration of the other two substrates (acetate and CoA, ATP and CoA, or ATP and acetate) and several fixed concentrations of inhibitor. Assay ready plates containing different concentrations of inhibitor were prepared using an Echo 550 acoustic dispenser (Labcyte Inc.). The assays were carried out as described in the previous section. […] For better comparison between both inhibitors and proteins, the ymin was fixed to zero and the ymax to 100. Inhibition data showing linear, competitive patterns in double-reciprocal plots were fit to Equation 4(Equation 4) v=VS/K(1+I/Ki)+S where Ki is the dissociation constant for the enzyme-inhibitor complex. Inhibition data showing linear, mixed inhibition patterns in double-reciprocal plots were fit to Equation 5(Equation 5) v=VS/K(1+I/Kis)+S(1+I/Kii) where Kis is the dissociation constant for the free enzyme-inhibitor complex and Kii is the dissociation constant for the enzyme-substrate-inhibitor complex. Inhibition data showing linear, uncompetitive patterns in double-reciprocal plots were fit to Equation 6(Equation 6) v=VS/K+S(1+I/Ki)

PfAcAS WT = PfAcAS WT (Plasmodium falciparum, UniProt C6KTB4); assay: EnzChek assay, recombinant PfAcAS WT (steady-state kinetics and IC50); assay type: biochemical, P. falciparum
Procedure: as §4, §5

PfAcAS T648M = biological target: T2, PfAcAS T648M (Plasmodium falciparum, UniProt C6KTB4, T648M); assay: EnzChek assay, recombinant PfAcAS T648M; assay type: biochemical, P. falciparum; settings: substrate varied, other two saturating
T2 sequence (C6KTB4 1-997 T648M): T1 sequence (C6KTB4 1-997 A597V)
Procedure: as §4, §5

HsAcAS WT = biological target: T3, HsAcAS WT (Homo sapiens, UniProt Q9NR19); assay: HsAcAS Rapid-Fire QQQ mass spectrometry assay; assay type: biochemical
T3 construct: made in house; host or cells: Expi293 cells (pCDNA 3.1, transient transfection)
T3 sequence (Q9NR19 whole entry): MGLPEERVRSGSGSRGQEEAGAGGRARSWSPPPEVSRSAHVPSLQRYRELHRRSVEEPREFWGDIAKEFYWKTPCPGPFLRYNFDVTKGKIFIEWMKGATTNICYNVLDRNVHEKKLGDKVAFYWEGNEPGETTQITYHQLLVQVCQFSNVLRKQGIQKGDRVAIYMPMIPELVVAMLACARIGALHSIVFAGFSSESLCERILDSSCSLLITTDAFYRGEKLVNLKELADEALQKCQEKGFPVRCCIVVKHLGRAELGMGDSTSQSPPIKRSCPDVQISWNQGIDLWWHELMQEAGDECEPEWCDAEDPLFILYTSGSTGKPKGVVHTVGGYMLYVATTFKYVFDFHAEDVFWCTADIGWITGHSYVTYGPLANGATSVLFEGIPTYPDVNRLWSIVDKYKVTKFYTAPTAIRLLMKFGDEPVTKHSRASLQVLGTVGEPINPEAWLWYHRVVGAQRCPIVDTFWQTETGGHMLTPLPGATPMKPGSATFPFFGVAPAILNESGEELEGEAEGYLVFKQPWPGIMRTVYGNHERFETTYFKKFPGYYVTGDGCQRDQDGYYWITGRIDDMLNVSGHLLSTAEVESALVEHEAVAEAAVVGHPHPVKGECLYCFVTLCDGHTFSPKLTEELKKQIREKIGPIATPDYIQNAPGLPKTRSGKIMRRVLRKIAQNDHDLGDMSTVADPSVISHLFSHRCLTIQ
Procedure: The human form of acetyl-CoA synthetase was assayed in 100 mM HEPES (pH7.4), 100 mM NaCl, 250 mM KCl, 50 mM MgCl2, 1 mM DTT, 0.005% NP40, 400 μM ATP, 70 μM acetate, 40 μM CoA and 2 nM recombinant HsAcAS. Assay ready plates containing different concentrations of inhibitor were prepared using an Echo 550 acoustic dispenser (Labcyte Inc.), dispensing 150 nL of compound per well. Assays were conducted in a total volume of 15 μL for 30 min at room temperature before being quenched with the addition of 85 μL 1% formic acid containing 0.5 μg/mL n-Propionyl coenzyme A (Sigma P5397) as an internal standard. Reaction products were detected using a RapidFire 365 system (Agilent, Santa Clara, CA) coupled with a triple quadrupole mass spectrometer 6740 (Agilent).
The sipper was washed to minimize carryover with 0.1% TFA in deionized water followed by 0.1% TFA in acetonitrile/deionized water (95%/5%, v/v). The sipper was washed to minimize carryover with deionized water followed by acetonitrile. Aspiration time, load/wash time, elution time, and re-equilibration time were set to 600, 3000, 5000, and 500 ms, respectively, with a cycle time of approximately 10 s. The triple-quadrupole mass spectrometer with electrospray ion source was operated in positive multiple reaction monitoring (MRM) mode. The detailed setting for the mass spectrometer parameters was as follows: capillary voltage, 3000 V; gas temperature, 350°C; gas flow, 7 L/min; nebulizer, 40 psi; sheath gas temperature, 300°C′ sheath gas flow, 11 L/min; and nozzle voltage, 1500 V. The MRM transitions for acetyl-CoA as a reaction product were set as 810.1/303.1 & 810.1/428.1 (quantifier & qualifier with dwell time of 50 ms, 100V fragmentor, and collision energies of 30 & 28 eV respectively) and for n-propionyl-CoA as an internal standard as 824.2/317.2 & 824.2/428.0 (quantifier & qualifier with dwell time of 50 ms, 100V fragmentor, and collision energies of 32 & 26 eV respectively). The mass resolution window for both parental and daughter ions was set at as a unit (0.7 Da). Peak areas were integrated, and area ratios of acetyl-CoA to the internal standard (n-propionyl CoA) were used for quantitation. Data were converted to % inhibition relative to the uninhibited enzyme control and fitted to Equation 3.

Structure (SMILES)	EC50 (P. falciparum 3D7-A10)	EC50 [1]	EC50 (P. falciparum Dd2-B2)	EC50 [2]	Km (PfAcAS A597V)	Vmax (s-1), PfAcAS A597V (PfAcAS A597V)	Ki (µM), substrate inhibition, PfAcAS WT (PfAcAS WT; substrate inhibition constant)	Km (PfAcAS WT; substrate varied, other two saturating)	Km (PfAcAS T648M)	Km (HsAcAS WT; read-out: Km (µM), HsWT)	Ki (µM), substrate inhibition, HsWT (HsAcAS WT; substrate inhibition constant)
CCN(CC)Cc1cc(Nc2ccnc3cc(Cl)ccc23)ccc1O [Amodiaquine]	0.0074 ± 0.0018 µM	0.02 ± 0.0086 µM	19 ± 6 nM	0.021 ± 0.0025 µM	–	–	–	–	–	–	–
CC(C)(COP(=O)(O)OP(=O)(O)OC[C@H]1O[C@@H](n2cnc3c(N)ncnc32)[C@H](O)[C@@H]1OP(=O)(O)O)[C@@H](O)C(=O)NCCC(=O)NCCS [CoA]	–	–	–	–	61 ± 6 µM	0.84 ± 0.05 s⁻¹	2700 ± 310 µM	42 µM	82 ± 6 µM	36 ± 5 µM	1000 ± 190 µM
